Measured values: the NIST ThermoML archive (doi:10.1021/je500502a)
± gives the expanded uncertainty stated by the source.

Key:
[1] = 101.33 kPa, Liquid; for electrical conductivity: PICO digital conductivity meter; for speed of sound: Sing-around technique in a fixed-path interferometer; for mass density: Vibrating tube method
[2] = refractive index (Na D-line) (dimensionless); settings: 101.33 kPa, Liquid, Standard Abbe refractometry

CCn1cc[n+](C)c1.O=S(=O)([N-]S(=O)(=O)C(F)(F)F)C(F)(F)F
Settings	electrical conductivity, [1] [S/m]	mass density, [1] [kg/m3]	refractive index, [2]	speed of sound, [1] [m/s]
293.15 K	0.854 ± 0.014	1521.47 ± 2.1	1.42425 ± 0.0006	1251.2 ± 2.1
298.15 K	0.947 ± 0.015	1516.39 ± 2.1	1.42286 ± 0.0006	1240.3 ± 2.1
303.15 K	1.07 ± 0.017	1511.32 ± 2.1	1.42142 ± 0.0006	1229.4 ± 2.1
308.15 K	1.19 ± 0.019	1506.27 ± 2.1	1.41997 ± 0.0006	1218.5 ± 2.1
313.15 K	1.33 ± 0.021	1501.23 ± 2	1.4185 ± 0.0006	1207.8 ± 2.1
318.15 K	1.48 ± 0.024	1496.21 ± 2	1.41705 ± 0.00061	1197.2 ± 2.1
323.15 K	1.64 ± 0.026	1491.21 ± 2	1.41555 ± 0.00061	1186.7 ± 2.1
